From ChEMBL document CHEMBL3045426, “Synthesis, Antiviral and Antibacterial Activities of Isatin Mannich Bases” (Med Chem Res, 2005)
In brackets after ≈: the same amount, converted by molar mass.

Tests used:
Proteus vulgaris = assay: Antimicrobial activity against Proteus vulgaris after 18 to 20 hr by agar dilution method; type: functional
Hepatitis C virus = assay: Antiviral activity against Hepatitis C virus BM4-5 infected in Huh7 cells assessed as inhibition of viral RNA replication by phosphor screening method; type: functional, Hepacivirus hominis, Huh-7
Vibrio cholerae [1] = assay: Antimicrobial activity against Vibrio cholerae 0139 after 18 to 20 hr by agar dilution method; type: functional; settings: 139
Salmonella typhimurium = assay: Antimicrobial activity against Salmonella enterica subsp. enterica serovar Typhimurium after 18 to 20 hr by agar dilution method; type: functional
Salmonella paratyphi = assay: Antimicrobial activity against Salmonella enterica subsp. enterica serovar Paratyphi A after 18 to 20 hr by agar dilution method; type: functional
Escherichia coli = assay: Antimicrobial activity against Escherichia coli NCTC 10418 after 18 to 20 hr by agar dilution method; type: functional
Vibrio cholerae [2] = assay: Antimicrobial activity against Vibrio cholerae 01 after 18 to 20 hr by agar dilution method; type: functional; settings: 1
Vibrio mimicus = assay: Antimicrobial activity against Vibrio mimicus after 18 to 20 hr by agar dilution method; type: functional
[3] = system: Human immunodeficiency virus 1; assay: Antiviral activity against Human immunodeficiency virus 1 IIIB infected MT4 cells assessed as inhibition of virus-induced cytopathicity after 5 days by MTT assay; type: functional, organism-based; settings: MT4, 120 h
Staphylococcus aureus = assay: Antimicrobial activity against Staphylococcus aureus after 18 to 20 hr by agar dilution method; type: functional
Salmonella enteritidis = assay: Antimicrobial activity against Salmonella enterica subsp. enterica serovar Enteritidis after 18 to 20 hr by agar dilution method; type: functional
Proteus mirabilis = assay: Antimicrobial activity against Proteus mirabilis after 18 to 20 hr by agar dilution method; type: functional
Enterobacter = assay: Antimicrobial activity against Enterobacter after 18 to 20 hr by agar dilution method; type: functional
Citrobacter freundii = assay: Antimicrobial activity against Citrobacter freundii after 18 to 20 hr by agar dilution method; type: functional
[4] = Selectivity index, ratio of CC50 for human MT4 cells to EC50 for HIV1 3B infected in MT4 cells; type: toxicity, cell-based; settings: read-out: Ratio CC50/EC50
Shigella boydii = assay: Antimicrobial activity against Shigella boydii after 18 to 20 hr by agar dilution method; type: functional
[5] = Cytotoxicity against Homo sapiens (human) CEM cells after 5 days by MTT assay; type: cell-based; settings: CEM cells (CCRF-CEM)
[6] = system: Human immunodeficiency virus 1; assay: Antiviral activity against Human immunodeficiency virus 1 IIIB infected CEM cells assessed as inhibition of virus-induced cytopathicity after 6 days by XTT assay; type: functional, organism-based; settings: CCRF-CEM, 144 h
[7] = Cytotoxicity against Homo sapiens (human) HuH7 cells assessed as cell growth at 50 ug/ml after 3 days by Neutral red assay; type: cell-based, Huh-7; settings: read-out: Activity
Klebsiella pneumoniae [8] = assay: Antimicrobial activity against Klebsiella pneumoniae after 18 to 20 hr by agar dilution method; type: functional
Shigella sonnei = assay: Antimicrobial activity against Shigella sonnei after 18 to 20 hr by agar dilution method; type: functional
Morganella morganii = assay: Antimicrobial activity against Morganella morganii after 18 to 20 hr by agar dilution method; type: functional
[9] = system: Human immunodeficiency virus 1; assay: Antiviral activity against Human immunodeficiency virus 1 IIIB infected MT4 cells assessed as protection against viral infection after 5 days by MTT assay; type: functional; design: concentration or dose not given beside the values
Salmonella typhi = assay: Antimicrobial activity against Salmonella enterica subsp. enterica serovar Typhi after 18 to 20 hr by agar dilution method; type: functional
Vibrio parahaemolyticus = assay: Antimicrobial activity against Vibrio parahaemolyticus after 18 to 20 hr by agar dilution method; type: functional
[10] = system: Mycobacterium tuberculosis; assay: Antimycobacterial activity against Mycobacterium tuberculosis H37Rv ATCC 27294 at 6.25 ug/ml by MABA; type: functional
Priestia megaterium = assay: Antimicrobial activity against Bacillus megaterium after 18 to 20 hr by agar dilution method; type: functional
Klebsiella pneumoniae [11] = assay: Antimicrobial activity against Klebsiella pneumoniae subsp. ozaenae after 18 to 20 hr by agar dilution method; type: functional
Plesiomonas = assay: Antimicrobial activity against Plesiomonas after 18 to 20 hr by agar dilution method; type: functional
Pseudomonas aeruginosa = assay: Antimicrobial activity against Pseudomonas aeruginosa after 18 to 20 hr by agar dilution method; type: functional
Edwardsiella tarda = assay: Antimicrobial activity against Edwardsiella tarda after 18 to 20 hr by agar dilution method; type: functional
Vibrio fluvialis = assay: Antimicrobial activity against Vibrio fluvialis after 18 to 20 hr by agar dilution method; type: functional
[12] = system: Human immunodeficiency virus 1; assay: Antiviral activity against Human immunodeficiency virus 1 IIIB infected CEM cells assessed as protection against viral infection after 6 days by XTT assay; type: functional, CCRF-CEM; design: concentration or dose not given beside the values
[13] = Cytotoxicity against Homo sapiens (human) MT4 cells after 5 days by MTT assay; type: cell-based

Compound | MIC (Proteus vulgaris) [µg/mL] | inhibition (INH) (Hepatitis C virus) [%] | MIC (Vibrio cholerae [1]) [µg/mL] | MIC (Salmonella typhimurium) [µg/mL] | MIC (Salmonella paratyphi) [µg/mL] | MIC (Escherichia coli) [µg/mL] | MIC (Vibrio cholerae [2]) [µg/mL] | MIC (Vibrio mimicus) [µg/mL] | EC50 [3] [µg/mL] | MIC (Staphylococcus aureus) [µg/mL] | MIC (Salmonella enteritidis) [µg/mL] | MIC (Proteus mirabilis) [µg/mL] | MIC (Enterobacter) [µg/mL] | MIC (Citrobacter freundii) [µg/mL] | MIC (Shigella boydii) [µg/mL] | viability at 72 h, 50 ug/ml [7] [%] | MIC (Klebsiella pneumoniae [8]) [µg/mL] | MIC (Shigella sonnei) [µg/mL] | MIC (Morganella morganii) [µg/mL] | Activity [9] [%] | further results
COc1cc(Cc2cnc(/N=C3\C(=O)N(CN(Cc4ccccc4)Cc4ccccc4)c4ccc(Cl)cc43)nc2N)cc(OC)c1OC | 625 (≈ 942 µM) | 81 | 312 (≈ 471 µM) | 1250 (≈ 1880 µM) | 625 (≈ 942 µM) | 625 (≈ 942 µM) | 1.22 (≈ 1.84 µM) | 4.88 (≈ 7.36 µM) | 10.4 (≈ 15.7 µM) | 625 (≈ 942 µM) | 625 (≈ 942 µM) | 625 (≈ 942 µM) | 625 (≈ 942 µM) | 1250 (≈ 1880 µM) | 1.22 (≈ 1.84 µM) | 65 | 1250 (≈ 1880 µM) | 1250 (≈ 1880 µM) | 625 (≈ 942 µM) | 95.1 | selectivity ratio [4]: 3; CC50 at 120 h [5]: 37.1 µg/mL (≈ 55.9 µM); EC50 [6]: > 37.1 µg/mL; MIC (Salmonella typhi): 625 µg/mL (≈ 942 µM); MIC (Vibrio parahaemolyticus): 19.5 µg/mL (≈ 29.4 µM); inhibition at 6.25 µg/mL [10]: 97%; MIC (Priestia megaterium): 1250 µg/mL (≈ 1880 µM); MIC (Klebsiella pneumoniae [11]): 1250 µg/mL (≈ 1880 µM); MIC (Plesiomonas): 39.1 µg/mL (≈ 58.9 µM); MIC (Pseudomonas aeruginosa): 1250 µg/mL (≈ 1880 µM); MIC (Edwardsiella tarda): 625 µg/mL (≈ 942 µM); MIC (Vibrio fluvialis): 1250 µg/mL (≈ 1880 µM); Activity [12]: 20.98%; CC50 at 120 h [13]: 44.1 µg/mL (≈ 66.5 µM)
CCCCN(CCCC)CN1C(=O)/C(=N\c2ncc(Cc3cc(OC)c(OC)c(OC)c3)c(N)n2)c2cc(Cl)ccc21 | 1250 (≈ 2100 µM) | 84 | 625 (≈ 1050 µM) | 1250 (≈ 2100 µM) | 625 (≈ 1050 µM) | 1250 (≈ 2100 µM) | 0.61 (≈ 1.03 µM) | 4.88 (≈ 8.2 µM) | 16.1 (≈ 27.1 µM) | 1250 (≈ 2100 µM) | 625 (≈ 1050 µM) | 1250 (≈ 2100 µM) | 1250 (≈ 2100 µM) | 1250 (≈ 2100 µM) | 39.1 (≈ 65.6 µM) | 48 | 1250 (≈ 2100 µM) | 1250 (≈ 2100 µM) | 625 (≈ 1050 µM) | 73.2 | selectivity ratio [4]: 3; MIC (Salmonella typhi): 1250 µg/mL (≈ 2100 µM); MIC (Vibrio parahaemolyticus): 19.5 µg/mL (≈ 32.8 µM); inhibition at 6.25 µg/mL [10]: 67%; MIC (Priestia megaterium): 1250 µg/mL (≈ 2100 µM); MIC (Klebsiella pneumoniae [11]): 1250 µg/mL (≈ 2100 µM); MIC (Plesiomonas): 39.1 µg/mL (≈ 65.6 µM); MIC (Pseudomonas aeruginosa): 2500 µg/mL (≈ 4200 µM); MIC (Edwardsiella tarda): 1250 µg/mL (≈ 2100 µM); MIC (Vibrio fluvialis): 1250 µg/mL (≈ 2100 µM); CC50 at 120 h [13]: 62.6 µg/mL (≈ 105 µM)
CCN(CC)CN1C(=O)/C(=N\c2ncc(Cc3cc(OC)c(OC)c(OC)c3)c(N)n2)c2cc(Cl)ccc21 | 625 (≈ 1160 µM) | 67 | 312 (≈ 580 µM) | 312 (≈ 580 µM) | 78.1 (≈ 145 µM) | 1250 (≈ 2320 µM) | 1.22 (≈ 2.26 µM) | 9.76 (≈ 18.1 µM) | 23.6 (≈ 43.8 µM) | 625 (≈ 1160 µM) | 625 (≈ 1160 µM) | 312 (≈ 580 µM) | 312 (≈ 580 µM) | 312 (≈ 580 µM) | 39.1 (≈ 72.5 µM) | 72 | 1250 (≈ 2320 µM) | 1250 (≈ 2320 µM) | 625 (≈ 1160 µM) | 64.1 | selectivity ratio [4]: 3; CC50 at 120 h [5]: 98.4 µg/mL (≈ 183 µM); EC50 [6]: > 98.4 µg/mL; MIC (Salmonella typhi): 1250 µg/mL (≈ 2320 µM); MIC (Vibrio parahaemolyticus): 39.1 µg/mL (≈ 72.5 µM); inhibition at 6.25 µg/mL [10]: 53%; MIC (Priestia megaterium): 1250 µg/mL (≈ 2320 µM); MIC (Klebsiella pneumoniae [11]): 625 µg/mL (≈ 1160 µM); MIC (Plesiomonas): 19.5 µg/mL (≈ 36.2 µM); MIC (Pseudomonas aeruginosa): 1250 µg/mL (≈ 2320 µM); MIC (Edwardsiella tarda): 1250 µg/mL (≈ 2320 µM); MIC (Vibrio fluvialis): 625 µg/mL (≈ 1160 µM); Activity [12]: 20.69%; CC50 at 120 h [13]: 79.1 µg/mL (≈ 147 µM)
COc1cc(Cc2cnc(/N=C3\C(=O)N(CN4CCN(C(=O)c5ccc(F)cc5)CC4)c4ccc(Cl)cc43)nc2N)cc(OC)c1OC | 2500 (≈ 3710 µM) | 91 | 1250 (≈ 1850 µM) | 2500 (≈ 3710 µM) | 625 (≈ 927 µM) | 2500 (≈ 3710 µM) | 39.1 (≈ 57.9 µM) | 2.44 (≈ 3.62 µM) | > 60.6 | 2500 (≈ 3710 µM) | 2500 (≈ 3710 µM) | 2500 (≈ 3710 µM) | 625 (≈ 927 µM) | 2500 (≈ 3710 µM) | 39.1 (≈ 57.9 µM) | 71 | 2500 (≈ 3710 µM) | 2500 (≈ 3710 µM) | 2500 (≈ 3710 µM) | 30.2 | CC50 at 120 h [5]: 51 µg/mL (≈ 75.7 µM); EC50 [6]: > 51 µg/mL; MIC (Salmonella typhi): 2500 µg/mL (≈ 3710 µM); MIC (Vibrio parahaemolyticus): 4.88 µg/mL (≈ 7.24 µM); inhibition at 6.25 µg/mL [10]: 38%; MIC (Priestia megaterium): 2500 µg/mL (≈ 3710 µM); MIC (Klebsiella pneumoniae [11]): 2500 µg/mL (≈ 3710 µM); MIC (Plesiomonas): 9.76 µg/mL (≈ 14.5 µM); MIC (Pseudomonas aeruginosa): 2500 µg/mL (≈ 3710 µM); MIC (Edwardsiella tarda): 2500 µg/mL (≈ 3710 µM); MIC (Vibrio fluvialis): 2500 µg/mL (≈ 3710 µM); Activity [12]: 23.38%; CC50 at 120 h [13]: 60.6 µg/mL (≈ 89.9 µM)
